Source: ChEMBL document CHEMBL5724914, “Linking interpersonal differences in gut microbiota composition and drug biotransformation activity” (2024)

Key:
[1] = human gut metagenome, 24 h, 2 µM
[2] = (§1) The drug is tested on WLS-240 corresponding to human gut metagenome with ENA study accession number: PRJEB37062 and ENA sample accession number: ERS12561773 for biotransformation under anaerobic condition. The drug concentrations were measured over 9 timepoints collected between 0 and 24 hours of incubation by liquid-chromatography-coupled mass spectrometry (LC–MS); details: 2 µM
[3] = as §1, with “WLS-038” for “WLS-240”, “ERS12561745” for “ERS12561773”; details: 2 µM
[4] = human gut metagenome, 24 h, 2 µM; remark: listed apart in the source
[5] = human gut metagenome, 24 h, 2 µM; remark: listed apart in the source
[6] = human gut metagenome, 24 h, 2 µM; remark: listed apart in the source
[7] = as §1, with “Z-001” for “WLS-240”, “mouse” for “human”, “ERS12561801” for “ERS12561773”; details: 2 µM
[8] = human gut metagenome, 24 h, 2 µM; remark: listed apart in the source
[9] = as §1, with “WLS-370” for “WLS-240”, “ERS12561793” for “ERS12561773”; details: 2 µM
[10] = as §1, with “WLS-090” for “WLS-240”, “ERS12561753” for “ERS12561773”; details: 2 µM
[11] = as §1, with “WLS-220” for “WLS-240”, “ERS12561769” for “ERS12561773”; details: 2 µM
[12] = human gut metagenome, 24 h, 2 µM; remark: listed apart in the source
[13] = human gut metagenome, 24 h, 2 µM; remark: listed apart in the source
[14] = as §1, with “WLS-069” for “WLS-240”, “ERS12561748” for “ERS12561773”; details: 2 µM
Further: call rule not given here.

| Bacterial Biotransformation [1] | Bacterial Biotransformation [2] | Bacterial Biotransformation [3] | Bacterial Biotransformation [4] | Bacterial Biotransformation [5] | Bacterial Biotransformation [6] | Bacterial Biotransformation [8] | Bacterial Biotransformation [9] | Bacterial Biotransformation [10] | Bacterial Biotransformation [11] | Bacterial Biotransformation [12] | Bacterial Biotransformation [13] | Bacterial Biotransformation [14] | Structure (SMILES) | Bacterial Biotransformation [7] |
| --- | --- | --- | --- | --- | --- | --- | --- | --- | --- | --- | --- | --- | --- | --- |
| Compound NOT metabolized | Compound metabolized | Compound NOT metabolized | Compound NOT metabolized | Compound NOT metabolized | Compound metabolized | Compound NOT metabolized | Compound NOT metabolized | Compound metabolized | Compound NOT metabolized | Compound metabolized | Compound NOT metabolized | Compound NOT metabolized | CN(C)CCc1c[nH]c2ccc(CS(=O)(=O)N3CCCC3)cc12 [ALMOTRIPTAN] |  |
| Compound metabolized | Compound metabolized | Compound metabolized | Compound NOT metabolized | Compound metabolized | Compound metabolized | Compound metabolized | Compound NOT metabolized | Compound metabolized | Compound metabolized | Compound metabolized | Compound NOT metabolized | Compound metabolized | CCCCC(=O)O[C@]1(C(=O)CO)[C@@H](C)C[C@H]2[C@@H]3CCC4=CC(=O)C=C[C@]4(C)[C@@]3(F)[C@@H](O)C[C@@]21C [BETAMETHASONE VALERATE] |  |
| Compound metabolized | Compound metabolized | Compound metabolized | Compound NOT metabolized | Compound NOT metabolized | Compound metabolized | Compound NOT metabolized | Compound metabolized | Compound metabolized | Compound metabolized | Compound metabolized | Compound metabolized | Compound NOT metabolized | Cc1nc(Nc2ncc(C(=O)Nc3c(C)cccc3Cl)s2)cc(N2CCN(CCO)CC2)n1 [DASATINIB ANHYDROUS] |  |
|  | Compound NOT metabolized | Compound NOT metabolized | Compound NOT metabolized | Compound metabolized | Compound NOT metabolized | Compound NOT metabolized | Compound NOT metabolized | Compound NOT metabolized | Compound NOT metabolized | Compound NOT metabolized | Compound NOT metabolized | Compound NOT metabolized | CC#CCn1c(N2CCC[C@@H](N)C2)nc2c1c(=O)n(Cc1nc(C)c3ccccc3n1)c(=O)n2C [LINAGLIPTIN] |  |

| Structure (SMILES) | Bacterial Biotransformation [1] | Bacterial Biotransformation [2] | Bacterial Biotransformation [3] | Bacterial Biotransformation [4] | Bacterial Biotransformation [5] | Bacterial Biotransformation [6] | Bacterial Biotransformation [8] | Bacterial Biotransformation [9] | Bacterial Biotransformation [10] | Bacterial Biotransformation [11] | Bacterial Biotransformation [12] | Bacterial Biotransformation [13] | Bacterial Biotransformation [14] | Bacterial Biotransformation [7] |
| --- | --- | --- | --- | --- | --- | --- | --- | --- | --- | --- | --- | --- | --- | --- |
| N[C@@H](Cc1ccc(N(CCCl)CCCl)cc1)C(=O)O | Compound metabolized | Compound NOT metabolized | Compound metabolized | Compound metabolized | Compound metabolized | Compound metabolized | Compound metabolized | Compound NOT metabolized | Compound metabolized | Compound metabolized |  |  |  | Compound metabolized |
| CNCC[C@H](Oc1cccc2ccccc12)c1cccs1 [DULOXETINE] | Compound NOT metabolized | Compound NOT metabolized | Compound NOT metabolized | Compound NOT metabolized | Compound NOT metabolized | Compound metabolized | Compound NOT metabolized | Compound NOT metabolized | Compound metabolized | Compound NOT metabolized | Compound NOT metabolized | Compound NOT metabolized | Compound NOT metabolized |  |
